Measured values taken from patent publication US10918645B2 (LIFEARC, priority 2016, dated 2021).

What was measured:
[1] = molecular target: LRRK2 (phospho S935) in Drosophila brain lysates (Homo sapiens (Human), UniProt Q5S007, G2019S); assay: Drosophila model kinase assays at week 6; type: in vivo; conditions: ratio of phosphate LRRK2 protein to Flag protein, significance compared to DMSO negative control
Experimental: The 10 μM GW5074 was used for the positive control. The negative control group was DMSO control (all compounds were dissolved in DMSO with 1:1000 dillution). The Drosophila were maintained at 25° C. on a 12 hour light-12 hour dark cycle. GW5074 was used as positive control [47].
The adult Drosophila heads were homogenized on ice, and the brain lysates were performed kinase reaction in kinase reaction buffer with ATP and DTT.
Then the lysates were electrophoresed through 12% SDS-PAGE gels and transferred to PVDF membranes (Millipore). The membranes were blocked in TBST with 5% skimmed milk for 1 hour at room temperature and then incubated in anti-LRRK2 pSer935 antibody (Abcam, ab133450) and anti-Flag antibody overnight at 4° C.
The proteins were detected with HRP-conjugated secondary antibodies and ECL detection reagents. The optical density of immunoblotting was analysed by Image J software and the ratio of phosphate LRRK2 protein compare to Flag protein were calculated and the data were analysed by GraphPad PRISM® 6.0 software.

[2] = test system: transgenic Drosophila expressing LRRK2-G2019S in dopamine (DA) neurons; assay: Drosophila model climbing assay (negative geotaxis); type: in vivo; conditions: significance compared to DMSO negative control
Description: (§1) Drosophila model was used to evaluate Examples in vivo. The GAL4/UAS system developed by Andrea Brand and Norbert Perrimon in 1993 [45] was used to generate transgenic Drosophila expressing LRRK2-G2019S in dopamine (DA) neurons. The system has two parts: the GAL4 gene, encoding the yeast transcription activator protein GAL4, and the UAS (Upstream Activation Sequence), an enhancer to which GAL4 specifically binds to activate gene transcription. This system takes advantage of the yeast GAL4 transcription factor, which binds specifically to the UAS.
To express LRRK2-G2019S in DA neurons, the UAS-Wild Type-LRRK2 and UAS-G2019S-LRRK2 transgenes were combined with the dopa decarboxylase (ddc)-GAL4 driver. The 10 μM GW5074 was used for the positive control. The negative control group was DMSO control (all compounds were dissolved in DMSO with 1:1000 dillution). The Drosophila were maintained at 25° C. on a 12 hour light-12 hour dark cycle. GW5074 was used as positive control.
The negative geotaxis assay was used to analyse the locomotors ability of the Drosophila. Twenty Drosophila from each vial and 4 vials for each group were performed the climbing assay weekly.
The tested Drosophila were transferred into a vertical plastic tube (15 cm tall, 1.5 cm in diameter). After 30 min of rest at room temperature, the Drosophila were gently tapped to the bottom of the tube, the numbers of Drosophila that could climb to or above the test line within 10 seconds were counted and the percent were calculated.
The climbing abilities were analysed based on three separate experiments for each vial and the data were analysed by GraphPad PRISM® 6.0 software.

[3] = test system: transgenic Drosophila expressing LRRK2-G2019S in dopamine (DA) neurons; assay: Drosophila model survival rate; type: in vivo; conditions: significance compared to DMSO negative control
Description: as §1
To express LRRK2-G2019S in DA neurons, the UAS-Wild Type-LRRK2 and UAS-G2019S-LRRK2 transgenes were combined with the dopa decarboxylase (ddc)-GAL4 driver. The 10 μM GW5074 was used for the positive control. […]
Twenty newly enclosed female Drosophila were collected and placed in a food vial. The Drosophila were moved to fresh food vials every other day at which time deaths were scored.
Based on Drosophila′ survival curve, the 50% survival time parameter indicates the time at which half of the Drosophila remained alive and was used to compare the survival ratio between the different groups. The mean 50% survival times and the standard errors were calculated based on 4 separate experiments for each group. The data were analysed by GraphPad PRISM® 6.0 software.

[4] = molecular target: LRRK2 G2019S (Homo sapiens (Human), UniProt Q5S007, G2019S); assay: Adapta Kinase Assay (LRRK2_IC50 assay); type: biochemical; conditions: inhibition of LRRK2 G2019S
Experimental: In Adapta™ Kinase Assay (LRRK2_IC50 assay): the Kinase Reaction Buffer contained 5× Kinase Buffer S (Life Technologies, PV5213) and 2 mM DTT (Life Technologies, P2325).
The Adapta® universal kinase assay is a homogenous, fluorescent based immunoassay for the detection of ADP. In contrast to ATP depletion assays, the Adapta® assay is extremely sensitive to ADP formation such that a majority of the signal change occurs in the first 10-20% conversion of ATP to ADP. This makes the Adapta® universal kinase assay ideally suited for use with low activity kinases.
Prepare a 1× solution of kinase reaction buffer from the 5× Kinase Buffer S stock (listed above) by adding 2 ml of 5× stock to 8 ml of H2O to make 10 ml of 1× kinase reaction buffer. To this, add 20 μl of 1 M DTT.
Kinase reactions are performed in a 10 μl volume in low-volume 384-well plates. […] Other non—treated assay plates, while not tested, may also be suitable. The concentration of substrate in the assay is 100 μM, and the 1× kinase reaction buffer consists of 50 mM Tris-HCl pH8.5, 10 mM MgCl2, 1 mM EGTA, 0.01% Brij-35, and 2 mM DTT, plus any additional additives that may be required for a specific kinase. […] The plate is allowed to equilibrate at room temperature for at least 30 minutes before being read on a plate reader configured for Adapta™ TR-FRET.
The data presented in this document were generated using a BMG LABTECH PHERAstar plate reader using the appropriate filters and instrument settings for Adapta™. The Test Compounds are screened in 1% DMSO (final) in the well. For 8 point titrations, 5-fold serial dilutions are conducted from the starting concentration.
(§2) IC50 estimates were obtained using the software XLfit (IDBS Inc.).

[5] = molecular target: JAK2 (Homo sapiens (Human), UniProt O60674); assay: LANCE Kinase Assay (JAK2_IC50 selectivity assay); type: biochemical
JAK2, sequence (O60674 whole entry): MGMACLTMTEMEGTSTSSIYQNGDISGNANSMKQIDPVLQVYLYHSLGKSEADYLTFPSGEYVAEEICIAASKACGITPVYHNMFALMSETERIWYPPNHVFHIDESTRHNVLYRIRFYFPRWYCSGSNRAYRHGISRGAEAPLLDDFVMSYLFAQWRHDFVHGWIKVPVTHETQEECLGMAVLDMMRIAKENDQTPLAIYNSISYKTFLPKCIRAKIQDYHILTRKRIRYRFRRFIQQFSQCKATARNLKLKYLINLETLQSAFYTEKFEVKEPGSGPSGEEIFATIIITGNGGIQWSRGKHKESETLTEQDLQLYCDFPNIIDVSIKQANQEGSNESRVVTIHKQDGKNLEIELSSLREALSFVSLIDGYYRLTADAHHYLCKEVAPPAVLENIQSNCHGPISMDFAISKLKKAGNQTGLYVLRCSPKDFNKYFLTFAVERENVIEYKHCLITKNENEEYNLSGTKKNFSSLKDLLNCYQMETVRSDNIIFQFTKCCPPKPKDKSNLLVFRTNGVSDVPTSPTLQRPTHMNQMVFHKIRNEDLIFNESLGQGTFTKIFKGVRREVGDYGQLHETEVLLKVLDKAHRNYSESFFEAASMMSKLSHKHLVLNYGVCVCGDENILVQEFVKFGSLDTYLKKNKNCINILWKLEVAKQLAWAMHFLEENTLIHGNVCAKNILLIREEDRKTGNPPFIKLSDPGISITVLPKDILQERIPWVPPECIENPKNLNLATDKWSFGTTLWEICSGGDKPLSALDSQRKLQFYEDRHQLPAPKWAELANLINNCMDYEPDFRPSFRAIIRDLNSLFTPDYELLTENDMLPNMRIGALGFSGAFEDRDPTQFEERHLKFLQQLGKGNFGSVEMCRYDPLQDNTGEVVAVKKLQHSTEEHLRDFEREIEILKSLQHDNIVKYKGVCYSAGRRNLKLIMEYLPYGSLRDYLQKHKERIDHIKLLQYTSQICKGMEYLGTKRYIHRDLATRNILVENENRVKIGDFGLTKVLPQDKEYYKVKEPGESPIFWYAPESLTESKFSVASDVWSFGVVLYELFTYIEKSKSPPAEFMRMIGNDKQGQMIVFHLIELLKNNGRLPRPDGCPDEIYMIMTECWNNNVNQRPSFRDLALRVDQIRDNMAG
Description: In LANCE® Kinase Assay (JAK2_IC50 selectivity assay): JAK2 (Invitrogen, Cat. No PV4288), ATP (Sigma, Cat. No. A7699-1G), DMSO (Sigma, Cat. No. D2650), DTT (Sigma, Cat. No. 43815), LANCE Ultra ULight™-JAK-1 peptide (Perkin Elmer, Cat. No. TRF0121), LANCE Eu-W1024 Anti-phosphotyrosine (PT66) (Perkin Elmer, Cat. No. AD0069), LANCE™ Detection Buffer (Perkin Elmer, Cat. No. CR97-100), Tofacitinib (PharmaBlock Sciences(Nanjing), Inc, Cat. No. PBN2011586-01); Equipments: Envision (Perkin Elmer), Bravo (Agilent); Consumables: 384 well Intermediate plate (Greiner, Cat. No. 781280), 384 well assay plate (Perkin Elmer, Cat. No. 6007299),
The assay involves two steps, the enzymatic step and the detection step with HTRF reagents. Step 1: During the enzymatic step the substrate-biotin is incubated with the kinase of interest. ATP is added to start the reaction. Step 2: The detection reagent catches the phosphorylated substrate and the resulting TR-FRET is proportional to the phosphorylation level.
Compound Preparation: Dissolve the test compounds into 30 mM DMSO solution and put them in nitrogen hood at room temperature for long term storage; Dilute the 30 mM compound in DMSO with 3-fold factor, total 11 concentrations; Aspirate 1 μl compound and then dilute them in 25 folds with kinase buffer. Mix well and balance 30 minutes at room temperature.
Kinase Reaction: Transfer 2.5 μl compounds in kinase buffer (4×) into assay plate by Agilent Bravo. Spin the plate; Transfer 5 μl enzyme mixture into the assay plate by using Eppendorf electronic multi-channel pipette. Spin the plate; Incubate the assay plate for 20 minutes at room temperature (23° C.); Add 2.5 μl kinase buffer with ATP into the assay plate by using Multidrop. Spin and seal the plate; Incubate the assay plate for 90 minutes at room temperature (23° C.).
Stop Reaction: Transfer 10 μl detection reagent (2 nM LANCE Eu-W1024 Anti-phosphotyrosine) into the assay plate by using Eppendorf electronic multi-channel pipette. Spin and seal the plate; Incubate the assay plate at room temperature (23° C.) for 60 minutes.
Detection and Read: The excitation wavelength is 340 nm, the primary emission wavelength is 615 nm and the secondary emission wavelength is 665 nm (for Cryptate and Ulight, respectively). Read the plate with EnVision to get the readout of both wavelengths; Calculate the ratio of 665 nm/615 nm.
as §2

LRRK2 (phospho S935) in Drosophila brain lysates, sequence (Q5S007 whole entry G2019S): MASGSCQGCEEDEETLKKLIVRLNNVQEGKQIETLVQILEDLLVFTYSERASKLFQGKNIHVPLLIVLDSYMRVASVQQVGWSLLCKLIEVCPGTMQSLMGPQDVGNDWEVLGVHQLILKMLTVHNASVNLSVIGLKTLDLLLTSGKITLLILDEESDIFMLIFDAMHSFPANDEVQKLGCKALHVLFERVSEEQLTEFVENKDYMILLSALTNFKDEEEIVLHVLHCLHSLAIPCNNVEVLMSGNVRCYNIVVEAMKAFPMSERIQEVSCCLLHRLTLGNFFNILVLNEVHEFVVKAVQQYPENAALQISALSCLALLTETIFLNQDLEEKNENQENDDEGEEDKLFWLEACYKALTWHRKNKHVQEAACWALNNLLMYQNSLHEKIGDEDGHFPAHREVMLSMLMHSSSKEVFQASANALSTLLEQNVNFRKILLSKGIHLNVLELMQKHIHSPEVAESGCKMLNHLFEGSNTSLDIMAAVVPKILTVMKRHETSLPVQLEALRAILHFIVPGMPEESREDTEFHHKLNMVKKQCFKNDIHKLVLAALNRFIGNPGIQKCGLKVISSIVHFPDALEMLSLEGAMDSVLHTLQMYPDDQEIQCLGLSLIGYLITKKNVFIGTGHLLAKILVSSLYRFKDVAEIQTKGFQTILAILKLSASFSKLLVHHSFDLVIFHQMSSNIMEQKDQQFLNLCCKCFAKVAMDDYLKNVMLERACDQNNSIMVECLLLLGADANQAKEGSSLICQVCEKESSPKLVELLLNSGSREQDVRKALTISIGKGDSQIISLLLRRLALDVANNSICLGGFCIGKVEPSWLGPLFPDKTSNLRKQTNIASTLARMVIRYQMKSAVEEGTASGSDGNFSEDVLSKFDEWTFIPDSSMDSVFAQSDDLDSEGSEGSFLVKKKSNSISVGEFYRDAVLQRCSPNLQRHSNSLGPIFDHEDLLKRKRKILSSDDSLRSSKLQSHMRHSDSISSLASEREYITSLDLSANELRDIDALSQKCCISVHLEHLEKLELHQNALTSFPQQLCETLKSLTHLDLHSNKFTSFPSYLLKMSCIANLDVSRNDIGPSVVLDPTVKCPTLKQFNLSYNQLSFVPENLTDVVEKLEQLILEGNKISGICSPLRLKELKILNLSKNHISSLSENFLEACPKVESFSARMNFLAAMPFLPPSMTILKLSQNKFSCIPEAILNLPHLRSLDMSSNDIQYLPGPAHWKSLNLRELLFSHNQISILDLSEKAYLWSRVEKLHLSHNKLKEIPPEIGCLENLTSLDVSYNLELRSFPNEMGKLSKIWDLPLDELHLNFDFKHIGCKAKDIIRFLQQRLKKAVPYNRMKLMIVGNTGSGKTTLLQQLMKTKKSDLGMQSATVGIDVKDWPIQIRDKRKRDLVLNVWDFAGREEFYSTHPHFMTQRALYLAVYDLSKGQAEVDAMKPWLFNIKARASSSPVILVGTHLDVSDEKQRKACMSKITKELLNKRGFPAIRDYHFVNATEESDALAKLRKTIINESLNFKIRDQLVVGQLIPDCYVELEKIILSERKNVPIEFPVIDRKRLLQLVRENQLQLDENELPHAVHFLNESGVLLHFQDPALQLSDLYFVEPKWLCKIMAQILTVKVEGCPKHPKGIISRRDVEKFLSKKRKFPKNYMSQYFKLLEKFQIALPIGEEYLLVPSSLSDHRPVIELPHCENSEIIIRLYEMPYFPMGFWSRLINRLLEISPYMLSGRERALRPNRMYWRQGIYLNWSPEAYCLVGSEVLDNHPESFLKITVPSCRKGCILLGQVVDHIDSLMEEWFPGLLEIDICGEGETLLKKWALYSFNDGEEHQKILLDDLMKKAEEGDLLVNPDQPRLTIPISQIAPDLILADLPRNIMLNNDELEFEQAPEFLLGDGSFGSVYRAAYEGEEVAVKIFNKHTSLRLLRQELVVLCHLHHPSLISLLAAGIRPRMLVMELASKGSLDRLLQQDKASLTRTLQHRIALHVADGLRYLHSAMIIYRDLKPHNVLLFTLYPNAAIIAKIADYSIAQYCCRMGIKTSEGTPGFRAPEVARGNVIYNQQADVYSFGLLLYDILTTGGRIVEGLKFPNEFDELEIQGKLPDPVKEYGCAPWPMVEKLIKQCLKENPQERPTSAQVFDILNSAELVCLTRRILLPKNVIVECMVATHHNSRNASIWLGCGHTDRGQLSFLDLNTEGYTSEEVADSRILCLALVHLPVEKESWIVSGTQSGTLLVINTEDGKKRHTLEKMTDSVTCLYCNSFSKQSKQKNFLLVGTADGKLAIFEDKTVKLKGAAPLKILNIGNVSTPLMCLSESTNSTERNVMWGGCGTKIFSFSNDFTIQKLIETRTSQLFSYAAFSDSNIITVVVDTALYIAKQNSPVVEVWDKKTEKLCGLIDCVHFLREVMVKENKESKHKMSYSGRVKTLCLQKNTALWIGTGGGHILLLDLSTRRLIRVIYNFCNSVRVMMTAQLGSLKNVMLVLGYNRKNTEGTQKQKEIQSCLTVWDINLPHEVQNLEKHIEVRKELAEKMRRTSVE

IC50 [4] [nM]	IC50 [5] [nM]	SMILES	Kinase Assays [1]	Climbing Assay 3 weeks ([2]; 3 weeks)	Climbing Assay 4 weeks ([2]; 4 weeks)	Climbing Assay 5 weeks ([2]; 5 weeks)	Climbing Assay 6 weeks ([2]; 6 weeks)	Survival Rate [3]
–	–	c1ccc2c(c1)CN(C1CCOCC1)c1nccc3[nH]nc-2c13 [Example 58]	* (P < 0.05, compared to DMSO negative control)	* (P < 0.05, compared to DMSO negative control)	* (P < 0.05, compared to DMSO negative control)	** (P < 0.01, compared to DMSO negative control)	** (P < 0.01, compared to DMSO negative control)	** (P < 0.01, compared to DMSO negative control)
230	3100	CC(C)N1CCCc2n[nH]c3ccnc1c23 [Example 19, 6-isopropyl-6,7,8,9-tetrahydro-2H-1,2,5,6-tetraazabenzo[cd]azulene]	–	–	–	–	–	–
